Values quoted from earlier work in paper PMC12211128, “Safety, tolerability, pharmacokinetic and pharmacodynamic effects of the muscarinic M1 positive allosteric modulator VU0467319 for Alzheimer’s disease: a single ascending-dose study in healthy participants” (Alzheimer's Research & Therapy, 2025).

What was measured:
M1 mAChR = details: cited from earlier work
Parkinson's disease = system: Parkinson's disease; set-up: method as in PMID 39761063; details: cited from earlier work

SMILES: COc1ccc(Cn2cc(C(=O)O)c(=O)c3ccccc32)cc1 [BQCA, benzyl quinolone carboxylic acid, reference compound]
- agonist and PAM properties at M1 (M1 mAChR): both agonist and PAM properties

SMILES: Cc1c(Cc2ccc(-n3cccn3)cc2)cc2c(c1F)CN([C@H]1COCC[C@@H]1O)C2=O [TAK-071]
- cognitive performance in Parkinson's disease (Parkinson's disease): produced improvement in cognitive performance
